Active and inactive are the calls of the source. The calls are words filed in the database; no cut-off is given here.
How the values were obtained:
[1] = target: T1, von Hippel-Lindau disease tumor suppressor/Son of sevenless homolog 1 (Homo sapiens) (UniProt Q07889+P40337); experiment: PROTAC activity at VHL/SOS1 in human NCI-H358 cells harboring KRAS G12C mutant assessed as induction of SOS1 degradation upto 10 uM incubated for 24 hrs by immunoblotting analysis; type: cell-based
[2] = target: T1, von Hippel-Lindau disease tumor suppressor/Son of sevenless homolog 1 (Homo sapiens); experiment: PROTAC activity at VHL/SOS1 in human ASPC1 cells harboring KRAS G12D mutant assessed as induction of SOS1 degradation upto 10 uM incubated for 24 hrs by immunoblotting analysis; type: cell-based
[3] = tested on: MIA PaCa-2; experiment: Antiproliferative activity against human MIA PaCa-2 cells harboring KRAS G12C mutant assessed as inhibition of cell proliferation incubated for 7 days by CellTiterGlo-3D proliferation assay; type: functional, cell-based; conditions: MIA PaCa-2, 168 h
[4] = tested on: NCI-H358; experiment: Antiproliferative activity against human NCI-H358 cells harboring KRAS G12C mutant assessed as inhibition of cell proliferation incubated for 7 days by CellTiterGlo-3D proliferation assay; type: functional, cell-based; conditions: NCI-H358, 168 h
[5] = tested on: ASPC1; experiment: Antiproliferative activity against human ASPC1 cells harboring KRAS G12D mutant assessed as inhibition of cell proliferation incubated for 7 days by CellTiterGlo-3D proliferation assay; type: functional, cell-based; conditions: ASPC1, 168 h
[6] = tested on: PANC-1; experiment: Antiproliferative activity against human PANC-1 cells harboring KRAS G12D mutant assessed as inhibition of cell proliferation incubated for 7 days by CellTiterGlo-3D proliferation assay; type: functional, cell-based; conditions: PANC-1, 168 h
[7] = tested on: SW-620; experiment: Antiproliferative activity against human SW620 cells harboring KRAS G12V mutant assessed as inhibition of cell proliferation incubated for 7 days by CellTiterGlo-3D proliferation assay; type: functional, cell-based; conditions: SW-620, 168 h
[8] = tested on: A549; experiment: Antiproliferative activity against human A549 cells harboring KRAS G12S mutant assessed as inhibition of cell proliferation incubated for 7 days by CellTiterGlo-3D proliferation assay; type: functional, cell-based; conditions: A549, 168 h
[9] = tested on: LoVo; experiment: Antiproliferative activity against human LoVo cells harboring KRAS G13D mutant assessed as inhibition of cell proliferation incubated for 7 days by CellTiterGlo-3D proliferation assay; type: functional, cell-based; conditions: 168 h
[10] = tested on: ASPC1; experiment: Antitumor activity against human ASPC1 cells harboring KRAS G12D mutant xenografted in BALB/c nude mouse assessed as tumor growth inhibition at 50 mg/kg, ip administered twice daily for 3 weeks relative to control; type: functional; conditions: ASPC1, 504 h, read-out: TGI
[11] = tested on: SW-620; experiment: Antitumor activity against human SW620 cells harboring KRAS G12V mutant xenografted in BALB/c nude mouse assessed as tumor growth inhibition at 50 mg/kg, ip administered twice daily for 2 weeks relative to control; type: functional; conditions: SW-620, 336 h, read-out: TGI
[12] = Toxicity in BALB/c nude mouse xenografted with human ASPC1 cells harboring KRAS G12D mutant assessed as body weight loss at 50 mg/kg, ip administered twice daily for 3 weeks; type: organism-based; conditions: in vivo, 504 h
[13] = Toxicity in BALB/c nude mouse xenografted with human SW620 cells harboring KRAS G12V mutant assessed as body weight loss at 50 mg/kg, ip administered twice daily for 2 weeks; type: organism-based, SW-620; conditions: in vivo, 336 h
[14] = tested on: ASPC1; experiment: In vivo Inhibition of ERK in human ASPC1 cells harboring KRAS G12D mutant xenografted BALB/c nude mouse assessed as inhibition of ERK phosphorylation at 50 mg/kg, ip administered twice daily for 3 weeks by Immunoblot analysis; type: functional, organism-based
[15] = tested on: ASPC1; experiment: In vivo Inhibition of ERK in human ASPC1 cells harboring KRAS G12D mutant xenografted BALB/c nude mouse assessed as inhibition of ERK phosphorylation in tumor at 50 mg/kg, ip administered twice daily for 3 weeks by immunohistochemical analysis; type: functional, organism-based
[16] = tested on: SW-620; experiment: In vivo Inhibition of ERK in human SW620 cells harboring KRAS G12V mutant xenografted BALB/c nude mouse assessed as inhibition of ERK phosphorylation at 50 mg/kg, ip administered twice daily for 2 weeks by Immunoblot analysis; type: functional, organism-based
[17] = tested on: SW-620; experiment: In vivo Inhibition of ERK in human SW620 cells harboring KRAS G12V mutant xenografted BALB/c nude mouse assessed as inhibition of ERK phosphorylation in tumor at 50 mg/kg, ip administered twice daily for 2 weeks by immunohistochemistry analysis; type: functional, organism-based

T1 sequence (P40337 whole entry, looked up): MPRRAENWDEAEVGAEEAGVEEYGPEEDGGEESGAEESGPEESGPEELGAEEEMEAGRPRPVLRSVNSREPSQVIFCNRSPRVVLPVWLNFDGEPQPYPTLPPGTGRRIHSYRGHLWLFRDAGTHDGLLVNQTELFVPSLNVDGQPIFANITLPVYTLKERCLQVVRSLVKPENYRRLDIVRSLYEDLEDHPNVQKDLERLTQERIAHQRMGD
T1 sequence (Q07889 whole entry, looked up): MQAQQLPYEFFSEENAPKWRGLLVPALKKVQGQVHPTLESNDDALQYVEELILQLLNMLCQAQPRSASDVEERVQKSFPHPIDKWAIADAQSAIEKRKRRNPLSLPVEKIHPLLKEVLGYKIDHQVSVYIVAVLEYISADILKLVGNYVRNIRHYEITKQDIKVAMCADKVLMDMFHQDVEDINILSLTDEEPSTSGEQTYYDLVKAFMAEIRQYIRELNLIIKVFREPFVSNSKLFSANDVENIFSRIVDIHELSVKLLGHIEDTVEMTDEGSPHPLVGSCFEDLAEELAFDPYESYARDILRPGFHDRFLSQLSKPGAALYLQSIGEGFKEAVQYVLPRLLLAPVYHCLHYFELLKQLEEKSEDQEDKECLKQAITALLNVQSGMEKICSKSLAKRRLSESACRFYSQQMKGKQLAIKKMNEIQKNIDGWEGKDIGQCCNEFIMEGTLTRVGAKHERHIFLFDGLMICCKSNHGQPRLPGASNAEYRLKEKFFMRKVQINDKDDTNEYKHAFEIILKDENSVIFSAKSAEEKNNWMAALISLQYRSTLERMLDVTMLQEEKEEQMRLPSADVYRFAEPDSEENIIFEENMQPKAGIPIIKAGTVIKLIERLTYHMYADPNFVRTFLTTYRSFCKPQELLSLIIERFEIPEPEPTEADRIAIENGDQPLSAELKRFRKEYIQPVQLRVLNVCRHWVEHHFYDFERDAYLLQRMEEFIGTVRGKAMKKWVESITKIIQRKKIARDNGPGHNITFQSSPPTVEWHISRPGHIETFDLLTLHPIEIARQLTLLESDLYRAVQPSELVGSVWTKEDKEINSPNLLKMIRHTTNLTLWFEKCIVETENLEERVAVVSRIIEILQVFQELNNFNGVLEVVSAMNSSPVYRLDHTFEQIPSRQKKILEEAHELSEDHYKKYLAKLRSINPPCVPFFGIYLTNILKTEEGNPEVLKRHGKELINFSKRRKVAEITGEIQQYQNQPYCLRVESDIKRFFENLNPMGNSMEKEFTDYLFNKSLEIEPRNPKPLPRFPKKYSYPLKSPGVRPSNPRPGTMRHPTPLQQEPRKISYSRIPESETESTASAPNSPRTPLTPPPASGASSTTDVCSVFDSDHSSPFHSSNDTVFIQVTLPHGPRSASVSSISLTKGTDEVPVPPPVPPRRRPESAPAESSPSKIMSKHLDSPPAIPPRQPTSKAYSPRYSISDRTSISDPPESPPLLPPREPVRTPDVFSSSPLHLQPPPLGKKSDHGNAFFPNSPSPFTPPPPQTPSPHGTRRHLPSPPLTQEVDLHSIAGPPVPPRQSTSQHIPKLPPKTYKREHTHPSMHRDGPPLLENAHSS

Which Activity [1] does the source give for COc1cc2nc(C)nc(N[C@H](C)c3cc(N)cc(C(F)(F)F)c3)c2cc1C1CCN(C(=O)CCCCCC(=O)N[C@H](C(=O)N2C[C@@H](O)C[C@H]2C(=O)N[C@@H](C)c2ccc(-c3scnc3C)cc2)C(C)(C)C)CC1 here?
The Activity was “inactive”.

What about the Activity [2] of the same compound?
Its Activity is “inactive”.

What about the IC50 [3] of the same compound?
The IC50 was 0.957 µM.

And the IC50 [4]?
The IC50 was 0.457 µM.

And the IC50 [5]?
The IC50 was 0.302 µM.

And the IC50 [6]?
The IC50 was 0.188 µM.

What about the IC50 [7] of the same compound?
Its IC50 is 0.303 µM.

What about the IC50 [8] of the same compound?
Its IC50 is 0.731 µM.

And the IC50 [9]?
The IC50 was over 1 µM.

What does the source list for COc1cc2nc(C)nc(N[C@H](C)c3cc(N)cc(C(F)(F)F)c3)c2cc1O[C@H]1CCOC1?
IC50 [3]: 0.0248 µM; IC50 [4]: 0.0165 µM; IC50 [5]: 0.0644 µM; IC50 [6]: 0.0178 µM; IC50 [7]: 0.0301 µM; IC50 [8]: 0.263 µM; IC50 [9]: 0.142 µM; inhibition in vivo at 50 mg/kg [10]: 43.6%; inhibition in vivo at 50 mg/kg [11]: 61.4%; Activity [12]: Non-Toxic; Activity [13]: Non-Toxic; inhibition [14]: Active; inhibition [15]: Active; inhibition [16]: Active; inhibition [17]: Active
